Data from ChEMBL document CHEMBL5352402, “Discovery of novel non-nucleoside inhibitors with high potency and selectivity for DNA methyltransferase 3A” (Eur J Med Chem, 2022).
Calls of active or inactive are those of the source. The rule behind the calls is not given here.

Legend:
[1] = molecular target: T1, DNMT3A2/3L complex (Homo sapiens) (UniProt Q9Y6K1+Q9UJW3); assay: Inhibition of N-terminal His-tagged human DNMT3A (623 to 912 residues)/N-terminal GST-tagged human DNMT3L (160 to 387 residues) co-expressed in baculovirus infected Sf9 cells assessed as DNA methylation using DNA oligonucleotide IDT-01 as substrate at 100 uM preincubated for 15 mins followed by substrate addition in presence of [3H]-SAM and measured after 4 hrs by radioactive methylation assay; details: time 255.0 min
[2] = molecular target: T1, DNMT3A2/3L complex (Homo sapiens); assay: Inhibition of N-terminal His-tagged human DNMT3A (623 to 912 residues)/N-terminal GST-tagged human DNMT3L (160 to 387 residues) co-expressed in baculovirus infected Sf9 cells assessed as DNA methylation using DNA oligonucleotide IDT-01 as substrate at 10 uM preincubated for 15 mins followed by substrate addition in presence of [3H]-SAM and measured after 4 hrs by radioactive methylation assay; details: time 255.0 min
DNMT3A2/3L complex = DNMT3A2/3L complex (Homo sapiens, UniProt Q9Y6K1); assay: Inhibition of N-terminal His-tagged human DNMT3A (623 to 912 residues)/N-terminal GST-tagged human DNMT3L (160 to 387 residues) co-expressed in baculovirus infected Sf9 cells assessed as DNA methylation using DNA oligonucleotide IDT-01 as substrate preincubated for 15 mins followed by substrate addition in presence of [3H]-SAM and measured after 4 hrs by radioactive methylation assay
K562 [3] = assay: Antiproliferative activity against human K562 cells assessed as inhibition of cell proliferation at 0.1 to 100 uM incubated upto 72 hrs by MTT assay; assay type: functional, cell-based; details: dose 0.1-100 µM
[4] = molecular target: T2, Histone-lysine N-methyltransferase EHMT2 (Homo sapiens, UniProt Q96KQ7); assay: Inhibition of N-terminal GST-tagged human G9a expressed in baculovirus infected Sf9 cells using biotinylated histone H3 peptide as substrate preincubated for 15 mins followed by substrate addition in presence of SAM and measured after 60 mins by AlphaLISA assay
T2 sequence (Q96KQ7 whole entry): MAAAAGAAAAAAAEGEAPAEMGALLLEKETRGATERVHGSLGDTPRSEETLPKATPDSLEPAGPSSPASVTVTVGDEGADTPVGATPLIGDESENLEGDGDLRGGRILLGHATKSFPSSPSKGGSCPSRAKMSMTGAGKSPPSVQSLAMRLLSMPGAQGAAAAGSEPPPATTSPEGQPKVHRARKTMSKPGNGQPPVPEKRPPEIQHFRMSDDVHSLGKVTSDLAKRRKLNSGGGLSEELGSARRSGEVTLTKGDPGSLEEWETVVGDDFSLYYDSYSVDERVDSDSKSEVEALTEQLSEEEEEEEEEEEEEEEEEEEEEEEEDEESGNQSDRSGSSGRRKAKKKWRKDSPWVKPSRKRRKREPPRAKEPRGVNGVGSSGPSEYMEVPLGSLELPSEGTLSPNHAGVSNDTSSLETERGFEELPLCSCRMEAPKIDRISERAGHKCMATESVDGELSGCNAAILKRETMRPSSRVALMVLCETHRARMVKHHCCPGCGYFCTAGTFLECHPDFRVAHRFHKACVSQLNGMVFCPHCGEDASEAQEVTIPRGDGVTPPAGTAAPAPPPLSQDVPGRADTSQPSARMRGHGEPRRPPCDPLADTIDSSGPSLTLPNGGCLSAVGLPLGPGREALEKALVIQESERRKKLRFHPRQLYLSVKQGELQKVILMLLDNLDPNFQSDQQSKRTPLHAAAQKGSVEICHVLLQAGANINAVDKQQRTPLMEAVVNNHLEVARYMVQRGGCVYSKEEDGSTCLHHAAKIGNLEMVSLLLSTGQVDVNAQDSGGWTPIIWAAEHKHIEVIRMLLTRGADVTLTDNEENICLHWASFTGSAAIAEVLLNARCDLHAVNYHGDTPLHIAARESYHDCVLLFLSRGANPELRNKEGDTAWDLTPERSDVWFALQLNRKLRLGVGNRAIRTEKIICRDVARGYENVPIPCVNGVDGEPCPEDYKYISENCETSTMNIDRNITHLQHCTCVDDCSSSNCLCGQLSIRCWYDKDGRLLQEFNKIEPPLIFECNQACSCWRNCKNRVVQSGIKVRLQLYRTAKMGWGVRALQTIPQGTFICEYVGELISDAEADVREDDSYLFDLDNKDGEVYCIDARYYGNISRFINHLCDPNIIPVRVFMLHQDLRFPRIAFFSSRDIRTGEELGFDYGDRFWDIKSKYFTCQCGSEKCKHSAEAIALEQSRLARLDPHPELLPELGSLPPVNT

A549 [5] = assay: cells; details: Homo sapiens, A549, 72 h
Description: Antiproliferative activity against human A549 cells assessed as inhibition of cell proliferation incubated for 72 hrs by MTT assay

HCT-116 [6] = assay: Antiproliferative activity against human HCT-116 cells assessed as inhibition of cell proliferation at 0.1 to 100 uM incubated upto 72 hrs by MTT assay; assay type: functional, cell-based; details: dose 0.1-100 µM
DU-145 [7] = assay: Antiproliferative activity against human DU-145 cells assessed as inhibition of cell proliferation incubated for 72 hrs by MTT assay; assay type: functional, cell-based; details: DU-145, 72 h
[8] = molecular target: DNA (cytosine-5)-methyltransferase 1 (Homo sapiens, UniProt P26358); assay: Inhibition of N-terminal GST-tagged full-length recombinant human DNMT1 assessed as DNA methylation using pdI-pdC DNA as substrate preincubated for 15 mins followed by substrate addition in presence of [3H]-SAM and measured after 150 mins by radioactive methylation assay
[9] = Cytotoxicity activity against human PBMC cells assessed as inhibition of cell proliferation incubated for 72 hrs by MTT assay; assay type: toxicity, cell-based
U-937 [10] = assay: cells; details: Homo sapiens, U-937, 72 h
Description: Antiproliferative activity against human U-937 cells assessed as inhibition of cell proliferation incubated for 72 hrs by MTT assay

THP-1 [11] = assay: Antiproliferative activity against human THP-1 cells assessed as inhibition of cell proliferation at 0.1 to 100 uM incubated upto 72 hrs by MTT assay; assay type: functional, cell-based; details: dose 0.1-100 µM
DU-145 [12] = assay: Antiproliferative activity against human DU-145 cells assessed as inhibition of cell proliferation at 100 uM incubated for 24 to 72 hrs by MTT assay; assay type: functional, cell-based; details: time 24-72 hrs, TDE = time-dependent effect
K562 [13] = assay: Antiproliferative activity against human K562 cells assessed as inhibition of cell proliferation at 100 uM incubated for 24 to 72 hrs by MTT assay; assay type: functional, cell-based; details: time 24-72 hrs, TDE = time-dependent effect
THP-1 [14] = assay: Antiproliferative activity against human THP-1 cells assessed as inhibition of cell proliferation at 100 uM incubated for 24 to 72 hrs by MTT assay; assay type: functional, cell-based; details: time 24-72 hrs, TDE = time-dependent effect
[15] = molecular target: DNA (cytosine-5)-methyltransferase 3A (Homo sapiens) (UniProt Q9Y6K1); assay: Inhibition of DNMT3A in human HCT-116 cells assessed as increase in p53 protein level at 1 uM incubated for 72 hrs by Western blot analysis; assay type: cell-based
DU-145 [16] = assay: Antiproliferative activity against human DU-145 cells assessed as inhibition of cell proliferation at 0.1 to 100 uM incubated upto 72 hrs by MTT assay; assay type: functional, cell-based; details: dose 0.1-100 µM
U-937 [17] = assay: Antiproliferative activity against human U-937 cells assessed as inhibition of cell proliferation at 0.1 to 100 uM incubated upto 72 hrs by MTT assay; assay type: functional, cell-based; details: dose 0.1-100 µM
U-937 [18] = assay: Antiproliferative activity against human U-937 cells assessed as inhibition of cell proliferation at 100 uM incubated for 24 to 72 hrs by MTT assay; assay type: functional, cell-based; details: time 24-72 hrs, TDE = time-dependent effect
K562 [19] = assay: Antiproliferative activity against human K562 cells assessed as inhibition of cell proliferation incubated for 72 hrs by MTT assay; assay type: functional, cell-based; details: K562, 72 h
THP-1 [20] = assay: Antiproliferative activity against human THP-1 cells assessed as inhibition of cell proliferation incubated for 72 hrs by MTT assay; assay type: functional, cell-based; details: THP-1, 72 h
HCT-116 [21] = assay: cells; details: Homo sapiens, HCT-116, 72 h
Description: Antiproliferative activity against human HCT-116 cells assessed as inhibition of cell proliferation incubated for 72 hrs by MTT assay

A549 [22] = assay: Antiproliferative activity against human A549 cells assessed as inhibition of cell proliferation at 100 uM incubated for 24 to 72 hrs by MTT assay; assay type: functional, cell-based; details: time 24-72 hrs, TDE = time-dependent effect
HCT-116 [23] = assay: Antiproliferative activity against human HCT-116 cells assessed as inhibition of cell proliferation at 100 uM incubated for 24 to 72 hrs by MTT assay; assay type: functional, cell-based; details: time 24-72 hrs, TDE = time-dependent effect
A549 [24] = assay: Antiproliferative activity against human A549 cells assessed as inhibition of cell proliferation at 0.1 to 100 uM incubated upto 72 hrs by MTT assay; assay type: functional, cell-based; details: dose 0.1-100 µM
DNMT3B = DNMT3B (Homo sapiens, UniProt Q9UBC3); assay: Inhibition of N-terminal His-tagged human DNMT3B (564 to 853 residues)/N-terminal GST-tagged human DNMT3L (160 to 387 residues) co-expressed in baculovirus infected Sf9 cells assessed as DNA methylation using DNA oligonucleotide IDT-01 as substrate preincubated for 15 mins followed by substrate addition in presence of [3H]-SAM and measured after 4 hrs by radioactive methylation assay

T1 sequence (Q9UJW3 whole entry, looked up, the tested form may be a part): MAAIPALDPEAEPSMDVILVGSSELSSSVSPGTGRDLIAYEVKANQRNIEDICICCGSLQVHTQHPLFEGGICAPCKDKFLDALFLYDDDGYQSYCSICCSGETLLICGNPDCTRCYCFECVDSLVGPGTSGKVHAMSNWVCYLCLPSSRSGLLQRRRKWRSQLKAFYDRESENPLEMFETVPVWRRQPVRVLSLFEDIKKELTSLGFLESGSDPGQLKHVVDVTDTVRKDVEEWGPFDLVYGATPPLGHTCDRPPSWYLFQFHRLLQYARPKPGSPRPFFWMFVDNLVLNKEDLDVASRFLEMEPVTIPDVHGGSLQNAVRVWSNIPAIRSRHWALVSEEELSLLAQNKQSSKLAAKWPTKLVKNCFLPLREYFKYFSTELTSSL
T1 sequence (Q9Y6K1 whole entry, looked up, the tested form may be a part): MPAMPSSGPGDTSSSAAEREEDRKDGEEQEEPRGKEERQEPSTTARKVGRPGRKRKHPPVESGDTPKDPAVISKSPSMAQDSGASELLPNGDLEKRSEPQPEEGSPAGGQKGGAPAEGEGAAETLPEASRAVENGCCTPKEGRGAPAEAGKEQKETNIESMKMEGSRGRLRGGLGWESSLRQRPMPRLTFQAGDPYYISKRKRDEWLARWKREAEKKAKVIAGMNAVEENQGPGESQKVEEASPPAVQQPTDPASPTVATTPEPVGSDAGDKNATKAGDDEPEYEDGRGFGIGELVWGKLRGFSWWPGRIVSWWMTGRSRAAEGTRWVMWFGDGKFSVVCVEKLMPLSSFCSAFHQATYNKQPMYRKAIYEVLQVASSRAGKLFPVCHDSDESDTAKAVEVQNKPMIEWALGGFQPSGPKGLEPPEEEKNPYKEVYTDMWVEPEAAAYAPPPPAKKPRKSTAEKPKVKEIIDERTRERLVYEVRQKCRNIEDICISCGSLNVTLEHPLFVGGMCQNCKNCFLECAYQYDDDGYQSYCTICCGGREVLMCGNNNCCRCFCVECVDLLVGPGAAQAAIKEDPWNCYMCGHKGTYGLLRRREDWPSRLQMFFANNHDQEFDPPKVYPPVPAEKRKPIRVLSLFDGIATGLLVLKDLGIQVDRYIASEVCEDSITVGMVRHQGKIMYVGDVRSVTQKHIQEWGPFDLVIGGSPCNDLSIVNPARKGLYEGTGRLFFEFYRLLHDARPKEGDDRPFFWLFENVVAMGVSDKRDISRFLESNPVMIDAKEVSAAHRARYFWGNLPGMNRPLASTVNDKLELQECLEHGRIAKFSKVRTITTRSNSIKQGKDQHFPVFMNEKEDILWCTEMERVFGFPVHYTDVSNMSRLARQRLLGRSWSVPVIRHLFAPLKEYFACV
DNMT3A2/3L complex, sequence (Q9Y6K1 whole entry, looked up, the tested form may be a part, one chain of several): as the sequence (Q9Y6K1 whole entry, looked up, the tested form may be a part) above
DNA (cytosine-5)-methyltransferase 1, sequence (P26358 whole entry): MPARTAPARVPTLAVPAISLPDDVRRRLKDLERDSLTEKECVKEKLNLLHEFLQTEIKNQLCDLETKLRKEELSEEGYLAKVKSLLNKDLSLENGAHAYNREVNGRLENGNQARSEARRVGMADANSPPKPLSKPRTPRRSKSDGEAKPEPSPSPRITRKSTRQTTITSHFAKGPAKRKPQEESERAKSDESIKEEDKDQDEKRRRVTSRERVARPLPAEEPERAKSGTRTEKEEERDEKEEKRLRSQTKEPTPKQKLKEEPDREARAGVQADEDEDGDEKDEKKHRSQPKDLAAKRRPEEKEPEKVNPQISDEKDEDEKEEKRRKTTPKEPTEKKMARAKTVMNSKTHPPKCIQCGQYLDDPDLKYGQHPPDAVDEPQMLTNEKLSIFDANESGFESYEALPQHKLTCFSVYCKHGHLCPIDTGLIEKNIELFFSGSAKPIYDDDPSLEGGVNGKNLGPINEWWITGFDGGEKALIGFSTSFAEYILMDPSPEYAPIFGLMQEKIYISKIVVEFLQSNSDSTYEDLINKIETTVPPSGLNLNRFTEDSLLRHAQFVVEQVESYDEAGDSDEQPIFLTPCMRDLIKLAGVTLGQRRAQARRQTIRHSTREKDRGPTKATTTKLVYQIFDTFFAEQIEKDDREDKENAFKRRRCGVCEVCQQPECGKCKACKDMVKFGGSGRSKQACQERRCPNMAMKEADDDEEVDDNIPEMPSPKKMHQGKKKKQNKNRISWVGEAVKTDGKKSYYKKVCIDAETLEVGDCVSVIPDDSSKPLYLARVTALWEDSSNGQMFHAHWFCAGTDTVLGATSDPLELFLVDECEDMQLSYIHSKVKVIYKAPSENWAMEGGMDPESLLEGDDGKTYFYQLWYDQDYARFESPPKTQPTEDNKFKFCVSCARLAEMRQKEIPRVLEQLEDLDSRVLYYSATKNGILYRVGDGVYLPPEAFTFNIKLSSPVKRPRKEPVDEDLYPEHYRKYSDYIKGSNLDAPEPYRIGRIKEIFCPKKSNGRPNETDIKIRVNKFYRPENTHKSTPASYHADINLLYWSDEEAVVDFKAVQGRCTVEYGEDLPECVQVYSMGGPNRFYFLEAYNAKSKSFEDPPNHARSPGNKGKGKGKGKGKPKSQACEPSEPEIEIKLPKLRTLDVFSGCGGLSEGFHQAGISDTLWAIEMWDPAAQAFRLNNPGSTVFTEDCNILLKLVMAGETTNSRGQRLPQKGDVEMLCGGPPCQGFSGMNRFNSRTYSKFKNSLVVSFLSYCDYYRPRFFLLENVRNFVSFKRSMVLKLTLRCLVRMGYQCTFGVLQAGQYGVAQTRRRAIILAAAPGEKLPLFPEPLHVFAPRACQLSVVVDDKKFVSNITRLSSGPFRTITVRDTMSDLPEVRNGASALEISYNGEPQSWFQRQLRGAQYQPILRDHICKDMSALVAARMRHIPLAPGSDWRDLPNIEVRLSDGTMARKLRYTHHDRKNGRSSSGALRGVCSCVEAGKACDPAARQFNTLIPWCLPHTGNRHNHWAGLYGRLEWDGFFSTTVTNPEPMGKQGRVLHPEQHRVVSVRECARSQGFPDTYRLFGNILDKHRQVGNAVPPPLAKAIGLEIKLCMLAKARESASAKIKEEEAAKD
DNA (cytosine-5)-methyltransferase 3A (Homo sapiens), sequence (Q9Y6K1 whole entry, looked up): as the sequence (Q9Y6K1 whole entry, looked up, the tested form may be a part) above

Cc1oc2ncn(CCCN3CCCCC3)c(=O)c2c1C(=O)Nc1ccc(C#N)cc1
inhibition [1]: 44%
inhibition [2]: 32.9%

Cc1sc2ncn(CCN3CCOCC3)c(=O)c2c1C(=O)Nc1ccc(S(N)(=O)=O)nc1
IC50 (DNMT3A2/3L complex): > 100 µM
inhibition [1]: 40.4%
inhibition [2]: 8.3%

Cc1oc2ncn(CCCN3CCCC3)c(=O)c2c1C(=O)Nc1ccc(C#N)cc1
inhibition [1]: 53.9%
inhibition [2]: 33.7%

Cc1oc2ncn(CCN3CCCCC3)c(=O)c2c1C(=O)Nc1ccc(C#N)cc1
inhibition [1]: 14.3%
inhibition [2]: 25.4%

Cc1oc2ncn(CCCN(C)C)c(=O)c2c1C(=O)Nc1ccc(C#N)cc1
inhibition [1]: 36%
inhibition [2]: 36.4%

Cc1oc2ncn(CC3CCCO3)c(=O)c2c1C(=O)Nc1ccc(S(N)(=O)=O)nc1 (configuration not stated)
inhibition [1]: 29.5%

Cc1oc2ncn(CCN3CCOCC3)c(=O)c2c1C(=O)Nc1ccc(C#N)cc1
inhibition [1]: 5.8%
inhibition [2]: 1%

Cc1oc2ncn(CCCN3CCOCC3)c(=O)c2c1C(=O)Nc1ccc(C#N)cc1
inhibition [1]: 28.4%
inhibition [2]: 22.7%

Cc1oc2ncn(CCN(C)C)c(=O)c2c1C(=O)Nc1ccc(C#N)cc1
inhibition [1]: 24%
inhibition [2]: 21.7%

Cc1oc2ncn(Cc3ccccc3)c(=O)c2c1C(=O)Nc1ccc(S(N)(=O)=O)nc1
inhibition [1]: 29.5%

Cc1oc2ncn(Cc3ccncc3)c(=O)c2c1C(=O)Nc1ccc(S(N)(=O)=O)nc1
inhibition [1]: 18.1%

Cc1oc2ncn(CCCN3CCOCC3)c(=O)c2c1C(=O)Nc1ccc(S(N)(=O)=O)nc1
inhibition [1]: 54.2%
inhibition [2]: 36%

Cc1sc2ncn(CCCN(C)C)c(=O)c2c1C(=O)Nc1ccc(S(N)(=O)=O)nc1
inhibition [1]: 57.5%
inhibition [2]: 51.3%

Cc1oc2ncn(C(C)c3ccccc3)c(=O)c2c1C(=O)Nc1ccc(S(N)(=O)=O)nc1 (configuration not stated)
inhibition [1]: 28.6%

Cc1oc2ncn(Cc3cccnc3)c(=O)c2c1C(=O)Nc1ccc(S(N)(=O)=O)nc1
IC50 (DNMT3A2/3L complex): > 100 µM
inhibition [1]: 48%
inhibition [2]: 11.3%

Cc1oc2ncn(CCN3CCCC3)c(=O)c2c1C(=O)Nc1ccc(C#N)cc1
inhibition [1]: 48.6%
inhibition [2]: 47.5%

Cc1oc2ncn(CCN3CCCCC3)c(=O)c2c1C(=O)Nc1ccc(S(N)(=O)=O)nc1
Activity (K562 [3]): Dose-Dependent Effect
IC50 [4]: > 500 µM
IC50 (A549 [5]): 11.1 µM
Activity (HCT-116 [6]): Dose-Dependent Effect
IC50 (DU-145 [7]): 5.3 µM
IC50 [8]: 51.2 µM
IC50 at 72 h [9]: 137 µM
IC50 (U-937 [10]): 1.8 µM
Activity (THP-1 [11]): Dose-Dependent Effect
Activity (DU-145 [12]): Tde
Activity (K562 [13]): Tde
Activity (THP-1 [14]): Tde
p53 protein level increase (active/not active) [15]: Active
Activity (DU-145 [16]): Dose-Dependent Effect
Activity (U-937 [17]): Dose-Dependent Effect
Activity (U-937 [18]): Tde
IC50 (K562 [19]): 6.1 µM
IC50 (THP-1 [20]): 2.2 µM
IC50 (HCT-116 [21]): 0.5 µM
inhibition [1]: 77.7%
Activity (A549 [22]): Tde
Activity (HCT-116 [23]): Tde
Activity (A549 [24]): Dose-Dependent Effect
inhibition [2]: 70.5%
IC50 (DNMT3B): > 100 µM

Cc1sc2ncn(CCCN(C)C)c(=O)c2c1C(=O)Nc1ccc(C#N)nc1
inhibition [1]: 37.8%
inhibition [2]: 28.9%
